Assay results reported in patent publication US9562082B2, “Production of glycoproteins with low N-glycolylneuraminic acid (Neu5Gc) content” (LEK Pharmaceuticals D.D., priority 2009, dated 2017).

biological target: T1, CMP-Neu5Ac hydroxylase (Mus musculus, UniProt Q61419); experiment: not given; design: concentration or dose not given beside the values; conditions: in vitro; cited from earlier work
T1 sequence (Q61419 5-577): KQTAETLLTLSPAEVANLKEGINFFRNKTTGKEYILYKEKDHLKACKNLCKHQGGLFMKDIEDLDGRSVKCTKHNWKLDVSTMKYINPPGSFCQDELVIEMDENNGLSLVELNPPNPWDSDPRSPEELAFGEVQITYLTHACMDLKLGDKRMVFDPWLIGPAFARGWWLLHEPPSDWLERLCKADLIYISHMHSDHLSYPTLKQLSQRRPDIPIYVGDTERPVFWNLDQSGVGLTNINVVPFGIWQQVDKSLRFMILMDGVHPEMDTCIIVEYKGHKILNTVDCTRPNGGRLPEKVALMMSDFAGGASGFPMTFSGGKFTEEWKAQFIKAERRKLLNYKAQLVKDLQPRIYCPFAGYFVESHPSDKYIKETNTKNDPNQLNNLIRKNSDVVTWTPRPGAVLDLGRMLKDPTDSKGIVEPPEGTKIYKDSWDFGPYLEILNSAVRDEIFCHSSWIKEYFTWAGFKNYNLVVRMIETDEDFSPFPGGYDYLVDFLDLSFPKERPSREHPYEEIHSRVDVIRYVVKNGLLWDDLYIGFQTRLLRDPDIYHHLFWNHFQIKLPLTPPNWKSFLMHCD

Compound	inhibition of CMP-Neu5Ac hydroxylase
[Co+2] [Co^2+]	50%
[Cu+2] [Cu^2+]	80%
O=C(O)CN(CCN(CC(=O)O)CC(=O)O)CC(=O)O [EDTA]	60%
[Mn+2] [Mn^2+]	50%
[Ni+3] [Ni^3+]	50%
[Zn+2] [Zn^2+]	30%
O=S(=O)([O-])c1ccc(-c2nnc(-c3ccccn3)nc2-c2ccc(S(=O)(=O)[O-])cc2)cc1.[Na+].[Na+] [ferozzine]	25%
c1cnc2c(c1)ccc1cccnc12 [phenanthreoline]	25%
O=S(=O)(O)c1cc(O)c(O)c(S(=O)(=O)O)c1 [tiron]	100%

test system: chickens; experiment: not given; conditions: rhEPO 1% Neu5Gc, fetuin 7% Neu5Gc, GM3 all Neu5Ac converted into Neu5Gc; cited from earlier work

Compound	titre of antibodies against Neu5Gc in immunised chickens
fetuin: glycoprotein with a content of Neu5Gc amounting to 7%	a significant titre of antibodies against Neu5Gc
rhEPO: recombinant human erythropoietin produced by Chinese hamster ovary (CHO) cells	did not produce a significant titre

test system: Recombinant CHO cells; experiment: Neu5Gc content of glycoprotein secreted by CHO cells cultivated with medium additives (RP-HPLC of DMB-labelled sialic acids); type: cell-based, Chinese hamster; conditions: NAcMan 5 mM in fermentation medium, darbepoetin alfa
Text: Recombinant CHO cells expressing high titres of the glycosylated human glycoproteins were cultivated in suspension culture using rich in-house standard medium without additives according to the invention. After 2 weeks of passages, the cells were first harvested and subsequently inoculated into the same medium, however, supplemented with a range of DMSO concentrations from 0.25% to 1.50% (w/v). The effect of DMSO on growth, productivity, degree of sialylation, and Neu5Gc content was studied.
“One factor at the time”-experiments with different DMSO concentrations at 37° C. and 33° C., respectively, were performed at first in an attempt to determine the DMSO concentration and temperature which are best to minimise the Neu5Gc content on the glycoproteins secreted. To study the interaction between the parameters (i) DMSO concentration, (ii) time of DMSO addition, and (iii) time of the temperature shift (from 37° C. to 33° C.), further experiments were performed with the Design-Expert/Design-Ease programme (Stat-Ease, Inc., Minneapolis, Minn., USA) using the response surface method. Parameters (i), (ii), and (iii) were chosen as numeric factors and the axial points were set slightly out of already known ranges in order to cover a wide design space. One replicate on axial points, one replicate on factorial points and 4 centre points were performed. The results were analysed using the Design of Expert (DOE) software (Design-Expert, Version 7.1). The results of the shake flask experiments were confirmed in the Biostat®B bioreactor (Sartorius, B. Braun Biotech International, Germany). Exponentially growing cells were taken from cell culture flasks having a surface area of 225 cm^2 (Corning®Costar®). A Biostat®B bioreactor with a working volume of 5 litres was inoculated with 2×10^5 cells/ml. Cells were cultivated in a batch mode under standard conditions (37° C., pH 7.0, dissolved oxygen concentration (DOT) 50%) in the rich in-house standard medium supplemented with 0.75% (w/v) DMSO.
In order to study the effect of key intermediates of the metabolic pathway leading to the sialylation of the glycoproteins and consequently to the conversion of Neu5Ac to Neu5Gc, a two factorial minimal resolution IV design, which allows for the estimation of the main effects, was established. Said design allowed the determination which of the components NAcMan, NAcGlc, Man, Fru, and Gal has/have an impact on the degree of sialylation and conversion of Neu5Ac to Neu5Gc. To confirm the results from the DOE findings, the production medium was enriched with 8.75 mM NAcMan and 8.75 mM NAcGlc in combination with manganese (Mn^2+) salts in different concentrations, e.g., in the concentrations mentioned earlier in this application.
At the end of the batch culture the cells were removed. The glycoproteins were purified from the remaining harvests by means of immuno-affinity chromatography. Briefly, up to 2 mg of each of the glycoproteins per ml of the chromatographic resin (20-500 ml of the harvest) were loaded onto the column. Elution of the glycoproteins was performed with 0.1 M Na-phosphate buffer, pH 2.5. By adding 1 M Na-phosphate buffer, pH 7.5 (made up by a combination of Na2H-phosphate and NaH2-phosphate), the pH of the eluate was immediately adjusted to 7 and then stored for further analysis at below −60° C.
Sialic acids (Neu5Gc, Neu5Ac, Neu-5,7Ac2, Neu5Gc9Ac, Neu-5,9Ac2, Neu-5,8,9Ac3) were differentiated using highly sensitive RP-HPLC. Enzymatic desialylation with neuraminidase (a2-3,6,8,9-neuraminidase (Sialidase) from Arthrobacter ureafaciens, Roche, USA) released sialic acids. The released sialic acids were labelled with the fluorescent dye 1,2-diamino-4,5-methylenedioxybenzene (DMB). DMB-labelling is non-selective and therefore provides a pool of labelled sialic acid derivates in stoichiometric amounts. Derivates of the DMB-labelled sialic acids were separated on an RP-HPLC column using isocratic elution. […]

Compound	content of Neu5Gc
CC(=O)N[C@@H]1C(O)O[C@H](CO)[C@@H](O)[C@@H]1O (stereo partly drawn) [NAcMan, N-acetylmannosamine]	about 0.5%
